# Laboratory results published in a melting point compilation (Tetko et al.; mined from patent text by program, amines drawn as free bases though some values may be those of a salt).
row,SMILES,melting point
1,Nc1ncc(-c2cccc(Cl)c2Cl)c(N)n1,208 to 211 °C
2,CC1(C)N=C(c2ccccc2F)c2cc(N)ccc2NC1=O,203 °C
3,CS(=O)(=O)c1ccc(C(=O)c2ccc(F)cc2)cc1,136 °C
4,COC(=O)NN=C(C)c1cc(Cl)ccc1NS(=O)(=O)C(F)(F)F,211 to 214 °C
5,N#Cc1ccc(-c2ccc3nc(-c4ccc(C#N)cc4)cn3c2)cc1,292 to 294 °C
6,CCC12CCC3C4CCC(=O)C=C4CCC3C1CCC2OC(=O)CC(C)C (configuration not stated),82 to 89 °C
7,Clc1ccc(C(c2ccccc2)c2ccccc2)cn1,69.5 to 71 °C
8,Nc1c(Cl)cc(C(O)CNC2CC2)cc1C(F)(F)F (configuration not stated),138 to 139 °C
9,CC(C)(CNc1nc(Cl)ncc1Cl)NS(C)(=O)=O,143 to 145 °C
10,CC(=O)n1nc(C2CCN(CCc3c(C)nc4c(C)cccn4c3=O)CC2)c2ccc(F)cc21,210 °C
11,CCOC(=O)c1cc(CC#N)c(C)s1,55 to 57 °C
12,Cc1cc(-c2cc(Cl)n(C)n2)c(C)[nH]1,59 to 61 °C
13,OCc1cccc(-c2ncc(Br)cn2)c1,115 to 116 °C
14,CCCC12CCC3C4CCC(=O)C=C4CCC3C1CCC2(C)O (configuration not stated),134 to 136 °C
15,C=CCCCc1ccc(C=CC(=O)c2ccc(OCC=C(C)C)cc2)c(OCC(=O)O)c1,116 to 118 °C
16,COC(=O)c1cccc(-c2nc(-c3cccc(C(F)(F)F)c3)cs2)c1,105 to 106 °C
17,CNC(=O)NCCCCC1CCSS1 (configuration not stated),89 to 90 °C
18,CCOC(=O)c1cnc(-c2cc3cccc(N(C)S(=O)(=O)c4cccs4)c3n2COC)s1,142 to 143 °C
19,CC(C)(C)c1cc(-n2nc3ccc(S(=O)(=O)c4ccccc4)cc3n2)c(O)c(C(C)(C)C)c1,170 to 172 °C
20,CC(C)CNC(=O)C=CCBr,94 to 95 °C
21,O=C(/C=C/c1ccc2ccccc2c1)Nc1cc(Cl)c(Cl)cc1S(=O)(=O)O,229 °C
22,O=C1Nc2ccc(Br)cc2C12CCNCC2,256 to 258 °C
23,CS(=O)(=O)OCC1CC(=O)N(c2ccc(-c3ccc(C#N)cc3)cc2)C1 (configuration not stated),183 to 186 °C
24,CCN1C(=O)C(C)(C)C(=O)N(C)c2cc(CN(CCn3ccc4ccsc4c3=O)Cc3cc(C)nn3C)ccc21,127 to 128 °C

row,SMILES,melting point
1,COC(=O)Nc1cccc(CC(=O)NC(C)(C)C)c1,123 to 124 °C
2,O=C(O)c1ccc2c(c1)CCc1ccc(C(=O)O)cc1S2(=O)=O,350 to 352 °C
3,CCC(Oc1cc(Cl)cc(Cl)c1)C(=O)NC(C)(C)C#CCCO (configuration not stated),104 to 106 °C
4,CCOC(=O)c1cn(CCCl)c2cc(N3CCN(C)CC3)c(F)cc2c1=O,208 °C
5,CCCCCCCCCCCc1cc2cc(C(=O)OCC)ccc2[nH]1,76 to 77 °C
6,CC(C)c1cccc(C(C)C)c1N1C(=O)c2cccc3c(Oc4ccc(C(C)(C)CC(C)(C)C)cc4)ccc(c23)C1=O,217 °C
7,CC(COc1ccccc1C1NC(C(=O)O)CS1)O[N+](=O)[O-] (configuration not stated),127 to 130 °C
8,CN(C)CCOc1cc2c(Nc3ccc(Cl)cc3Cl)c(C#N)cnc2cn1,75 to 79 °C
9,Nc1ccc(-c2ccncc2)nc1N,252 to 254 °C
10,Cc1nn(-c2ccccn2)c2ncc(C(=O)O)c(O)c12,248 to 251 °C
11,CCOC(=O)C1CCCN2CCC3c4cc(Cl)ccc4NC3C12 (configuration not stated),124 °C
12,O=C(c1ccc(Cl)cc1)C(Br)CCCl (configuration not stated),73 °C
13,Cc1ccc2[nH]cc(C3C(=O)N(C)C(=O)C3c3cn(C)c4ccc(C)cc34)c2c1 (configuration not stated),103 to 105 °C
14,CC(=O)Nc1nc2c(NC(=O)c3ccc4cc(Br)ccc4c3)cccc2s1,242 °C
15,Cc1cc(C)cc(SCC(=O)c2ccc(C(C)C)cc2)c1,46 to 47 °C
16,CC(C)(C(=O)c1cccs1)C(=O)c1cccs1,153 to 156 °C
17,CC(=O)OCCc1cc2c(s1)SCCC1CC(=O)NN=C21 (configuration not stated),106 to 108 °C
18,CCCc1c(OCCCCCCc2ccc(CCCCC(=O)O)c(CCC(=O)O)c2)ccc2c1OCCC2=O,108 to 109 °C
19,COC(=O)Cc1ccc(O)c(Cl)c1,35 to 36 °C
20,COC1CCC(OC)C2=C1C=CC(=O)C2 (configuration not stated),99 to 100 °C
21,O=C1CCC(N2Cc3cc(CNC(=O)Nc4ccc(SC(F)(F)F)cc4)ccc3C2=O)C(=O)N1 (configuration not stated),218 to 220 °C
22,COC(=O)c1cn2c(=O)c(Cl)c(C)nc2s1,218 to 220 °C
23,NS(=O)(=O)c1cccc(-c2cn(-c3nc(-c4cccc(Cl)c4)cc(C(F)(F)F)n3)cn2)c1,204 °C
24,Cc1ccc(C(=O)C=Cc2cc(O)c(O)c([N+](=O)[O-])c2)cc1,184 to 186 °C

row,SMILES,melting point
1,C=C1C[C@@H]2[C@H](CC[C@]3(C)C(=O)CC[C@@H]23)[C@@]2(C)CCC(=O)C(OC)=C12,196 to 198 °C
2,N#Cc1ccc2nc(-c3ccc(Br)cc3)cn2c1,262 to 264 °C
3,CN(CCOc1ccc2ccc(N)nc2n1)C(=O)OC(C)(C)C,170 °C
4,Cc1cccc(NC(=O)NCC(=O)N(CC(=O)N(C)c2ccccc2)c2ccccc2)c1,168 °C
5,CCOP(=O)(Cc1nsc2ccc(-n3c(=O)cc(C(F)(F)F)n(C)c3=O)cc12)OCC,142 to 144 °C
6,CC1CC(=O)NN=C1c1ccc(CCCCN)cc1 (configuration not stated),135 to 137 °C
7,CNC(=O)N1N=C(c2ccc([N+](=O)[O-])cc2)c2ccc(Cl)cc2CC1C (configuration not stated),224 to 226 °C
8,COC(=O)C1OC(Oc2ccc(C=O)cc2[N+](=O)[O-])C(OC(C)=O)C(OC(C)=O)C1OC(C)=O (configuration not stated),180 to 182 °C
9,O=S1(=O)N=CN(C2CCCC2)c2ccc(Cl)cc21,218 to 220 °C
10,CC(C)(C)OC(=O)NC(Cc1ccccc1)C(O)CNCC(O)C(Cc1ccccc1)NC(=O)C(O)(CO)C(C)(C)C (configuration not stated),84 to 86 °C
11,CC(C)(C)n1c(=O)[nH]c2ccccc21,146 to 147 °C
12,CC(=O)OCc1ccc(-c2[nH]c(-c3cccc4ccccc34)nc2C(=O)Nc2nccs2)cc1,197 to 199 °C
13,Cc1ccc(S(=O)(=O)NCCc2ccc(O)cc2)cc1,169 to 172 °C
14,Cn1ncc(S(N)(=O)=O)c1C1=NOCCO1,126 to 130 °C
15,Nc1cc(NC(=O)CCCCl)c(Cl)cc1Cl,125 to 128 °C
16,C=CCNc1c(CO)cnc2cn[nH]c12,190 to 192 °C
17,COc1ccc(C(C)(C)CC(O)(C(=O)O)C(F)(F)F)cc1Br (configuration not stated),94 to 96 °C
18,COc1ccc(C(=O)CC(=O)OC(C)(C)C)c(O)c1,40 to 42 °C
19,CCC(Cc1ccc(OCCN2CCOCC2)cc1)(C(=O)NO)S(=O)(=O)c1ccc(OC)cc1 (configuration not stated),51 °C
20,Cc1cc(Br)c2nc(Cl)ccc2c1,107 to 108 °C
21,O=[N+]([O-])c1ccc2nc3c(nc2c1)N1CCCCC1CO3 (configuration not stated),226 to 229 °C
22,CCC(c1ccccc1)(c1ccccc1)c1ccnc(C(N)=O)c1,144 to 147 °C

# Now from value to compound:
row,melting point,SMILES
1,189 to 191 °C,COc1cc2oc(=O)c3c(c2cc1OC)CCN(Cc1ccccc1)C3
2,173 to 174 °C,Clc1cccc2c(CN3CCN(c4ccc5c(c4)OCO5)CC3)n[nH]c12
3,165 to 168 °C,O=C1C=C(NNc2ccccc2)CCN1
4,182 °C,COc1cccc2c1C(=O)c1c(OC)cc(C(=O)N(C)O)cc1C2=O
5,151 °C,Cn1c(=O)cc(CCc2ccc(Cl)s2)c2cc(C(=O)c3ccc(Cl)cc3)ccc21
6,96 to 102 °C,Clc1ccc(OCc2noc(-c3ccccc3)n2)cc1
7,90 to 91 °C,CON=C(c1cnco1)c1ccccc1COc1cc(C)ccc1C
8,108 to 111 °C,Cc1ccc(-c2cn(C)cc(-c3ccccc3)c2=O)cc1C
9,179 to 180 °C,COCOc1ccccc1-c1cc(-c2cccc(C(=O)O)c2)c(C#N)c(NC(=O)c2cccs2)n1
10,175 °C,Cc1cc2ncc(Nc3cccc(Cl)c3)nc2cc1C
11,152 to 155 °C,CCOC(=O)c1cnc2n(c1=O)-c1ccccc1N(C(C)=O)C2
12,81.5 to 82 °C,CCOC(=O)COc1cc(OCc2ccccc2)ccc1C(=O)CC
13,142 to 143 °C,FC(F)(F)c1cccc2c(Cl)c3ccccc3c(Cl)c12
14,153 to 155 °C,CCCCC(=O)c1c(-c2ccc3c(C)c(OCC(=O)O)ccc3c2)oc2ccccc12
15,216 to 219 °C,CCCc1ccnc2c(=O)[nH]c(-c3cc(S(=O)(=O)NC)ccc3OCC)nc12
16,150 to 151 °C,COc1cc(-c2cnc3[nH]cc(C(=O)CCC(C)OC)c3n2)cc(OC)c1OC (configuration not stated)

row,melting point,SMILES
1,209 to 214 °C,Cc1nc(-c2ccccc2)cc(-c2cccc([N+](=O)[O-])c2)c1CO
2,209 °C,CCN1CCc2ccc(Nc3ncc(Cl)c(N[C@@H]4c5ccccc5C[C@@H]4O)n3)cc2CC1
3,75 to 79 °C,CC(C)(C)OC(=O)N1CCC[C@H](C(=O)c2ccccc2)C1
4,153 to 154 °C,O=C(O)[C@@H]1CCCN(CC#CCN2c3ccccc3CCc3ccccc32)C1
5,94 to 95 °C,C=Cc1nc(-c2ccco2)c2ncn(Cc3ccc(OC)cc3)c2n1
6,325 to 330 °C,Nc1nc2cc(C(=O)c3ccccc3)ccc2n1CCC(=O)O
7,196 to 198 °C,O=c1c(-c2ccccc2O)coc2cc(O)ccc12
8,210 to 212 °C,O=C(CN1C(=O)C2(COc3cc4c(cc32)CCO4)c2ccccc21)Nc1ccccc1F (configuration not stated)
9,138 °C,Cc1cc(COc2ccc(S(=O)(=O)NC[C@@H](C(=O)NO)N3CCOCC3)cc2)c2ccccc2n1
10,78 to 80 °C,C[C@@H](NC(=O)OC(C)(C)C)C(=O)NCCCN1CCN(CCCNc2cccc3c2C(=O)c2ccccc2C3=O)CC1
11,133 to 135 °C,CCOc1ccc(-c2ccc3c(c2)C=C(C(=O)OC)CCN3C=O)cc1
12,143 to 148 °C,Cn1ccc2cc(C(=N)Nc3cccc(NC(=O)C=Cc4ccccc4)c3)ccc21
13,> 290 °C,O=C1c2ccccc2-c2c1c(=O)[nH]c1ccccc21
14,211 to 212 °C,CC(C)(C)OC(=O)N1CC[C@@H](NC(=O)c2ccc(-n3cc4ccccc4n3)cc2)C1
15,144 to 147 °C,O=C(O)c1ccc2[nH]cc(CCCCN3CCCC(Cc4ccccc4)C3)c2c1 (configuration not stated)
16,102 to 103 °C,CC(Sc1cc2ccccc2[nH]1)(C(=O)OCc1ccccc1)c1ccccc1 (configuration not stated)
